Data from patent US8466169B2, “SF5 derivatives as PAR1 inhibitors, production thereof, and use as medicaments” (Sanofi, priority 2008, dated 2013).

Assays:
PAR1 [1] = target: T1, PAR1 (Homo sapiens, UniProt P25116); experiment: PAR1 binding test (radioligand displacement, membrane preparation); set-up: expressed in transfected cells; host or cells: High Five insect cells (transient expression), membrane preparation; conditions: human PAR1 receptor expressed in High Five insect cells, membrane 1 mg/ml, radioligand 20 nM, 60 minutes; read-out: Inhibition of binding IC50
T1 sequence (P25116 22-425): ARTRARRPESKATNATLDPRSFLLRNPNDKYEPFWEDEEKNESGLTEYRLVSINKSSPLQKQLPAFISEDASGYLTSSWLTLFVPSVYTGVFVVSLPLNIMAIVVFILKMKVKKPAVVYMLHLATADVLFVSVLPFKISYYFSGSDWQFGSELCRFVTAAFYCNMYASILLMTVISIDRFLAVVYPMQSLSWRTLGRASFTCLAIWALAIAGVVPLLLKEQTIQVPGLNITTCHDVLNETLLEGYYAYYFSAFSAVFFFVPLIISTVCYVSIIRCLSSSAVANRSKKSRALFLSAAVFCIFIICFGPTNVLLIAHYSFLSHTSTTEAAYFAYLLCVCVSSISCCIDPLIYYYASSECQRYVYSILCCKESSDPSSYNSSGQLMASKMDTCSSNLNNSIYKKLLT
Protocol: The synthesized substances were examined in a PAR1 binding test. This tested whether the substances can inhibit the binding of a radioactively labeled PAR1 agonist known from the literature at the PAR1 receptor (Ho-Sam Ahn, Mol Pharm, 51:350-356, 1997).
The human PAR1 receptor was expressed transiently in High Five insect cells. From these cells, after 48 hours, a membrane preparation was produced by standard methods, aliquoted into 10 mM Tris-HCl; 0.3 mM EDTA; 1 mM EGTA; 250 mM sucrose pH 7.5, and stored at −80° C.
The substances were preincubated with the membrane at RT for 15 minutes, then the radioligand (ALA-(para-F-Phe)-Arg-ChA-homoArg-(3,4-^3H-Tyr)-NH2; approx. 40 Ci/mMol) was added. The end concentration of the radioligand in the test buffer (50 mM Tris-HCl; 10 mM MgCl2; 1 mM EGTA; 0.1% BSA; 2% DMSO) was 20 nM, that of the membrane 1 mg/ml. After an incubation time of 60 minutes, 25 μl of the mixture were transferred to a 96-well MultiScreenHTS FB microtiter filtration plate (from Millipore), which had been pretreated beforehand with a 0.75% aqueous polyethyleneimine solution for 5 hours at RT. Thereafter, with vacuum extraction, each well was washed four times with 300 μl of buffer (50 mM Tris-HCl; 10 mM MgCl2; 1 mM EGTA). The plate was then dried overnight, 100 μl of scintillator per well were added, and the plate was analyzed after 6 hours in a Wallac MicroBeta (from PerkinElmer) liquid scintillation counter. The nonspecific binding was determined in the presence of 100 μM SCH79797 (PAR-1 antagonist; from Tocris, Cat. No. 1592) and subtracted from all measurements. The 100% value used was a control without inhibitor. The % inhibition values of a substance dilution series were used to calculate the IC50 with the aid of nonlinear regression analysis according to the 4-parameter equation.

PAR1 [2] = target: T1, PAR1; experiment: Inhibition of PAR1-mediated platelet aggregation induced by TRAP; format: cell-based; set-up: endogenous in cells; host or cells: washed human blood platelets from volunteer donors; conditions: washed platelets from healthy volunteer donors, TRAP (thrombin receptor-activating peptide) as agonist, 96-well format, AUC at 650 nm
Protocol: Inhibition of PAR1-Mediated Platelet Aggregation
The biological testing of the substances took place in platelet aggregation induced by TRAP (thrombin receptor-activating peptide) in 96-well format. For this purpose, blood was taken from healthy volunteer donors in 20 ml syringes containing 2 ml of 3.13% sodium citrate solution. After centrifugation at 150×g for 20 minutes, the platelet-rich plasma (PRP) was separated off and admixed with 1 μl of PGE1 solution (500 μg/ml in ethanol)/ml of PRP. Incubation at RT for 5 minutes was followed by centrifugation at 120×g for 15 minutes to remove the leukocytes. The leukocyte-free PRP was transferred in 5 ml portions into 15 ml PP tubes and centrifuged at 360×g for 15 minutes in order to pellet the platelets. The plasma was then decanted off and the platelet sediment from 5 ml of PRP was resuspended in 1 ml of Tyrode's (120 mM NaCl, 2.6 mM KCl, 12 mM NaHCO3, 0.39 mM NaH2PO4×H2O, 10 mM HEPES, 0.35% BSA, 5.5 mM glucose, pH 7.4) and adjusted with Tyrode's to a platelet count of 3×10^5/microliter (μl). 13 ml of this cell suspension were then mixed with 866 μl of 10 mM CaCl2 solution, and 120 μl thereof were pipetted into each well of a 96-well plate containing 15 μl of the substance to be tested. After incubation at RT in the dark for 30 minutes, 15 μl of a TRAP solution (70-100 μM) were added as agonist, and kinetics were recorded at 650 nm in a SpectraMax 340 at 37° C. for 20 minutes while shaking. The areas under the curves of negative control (Tyrode's/DMSO) and positive control (15 μl of agonist/DMSO) were calculated and the difference was fixed as the 100% value. The substances to be tested were pipetted as serial dilutions in duplicate determination, the AUC was likewise determined for each substance concentration, and the % inhibition of the AUC compared with the control was calculated. On the basis of the % inhibition, the IC50 was calculated by nonlinear regression analysis according to the 4-parameter equation.

Row | IC50 (PAR1 [1]) [nM] | IC50 (PAR1 [2]) [nM] | Structure (SMILES)
1 | 512 |  | CCOc1cc(C(=O)CN2Cc3cc(OCC)c(OCC)c(F)c3C2=N)cc(S(F)(F)(F)(F)F)c1 [Example 24, 2-(5,6-Diethoxy-7-fluoro-1-imino-1,3-dihydroisoindol-2-yl)-1-[3-ethoxy-5-(pentafluorosulfanyl)phenyl]ethanone]
2 | 360 |  | CCOc1cc2c(c(F)c1OCC)C(=N)N(CC(=O)c1cc(NC(=O)CC(C)(C)C)cc(S(F)(F)(F)(F)F)c1)C2 [Example 17, N-{3-[2-(5,6-Diethoxy-7-fluoro-1-imino-1,3-dihydroisoindol-2-yl)acetyl]-5-pentafluorosulfanylphenyl}-3,3-dimethylbutyramide]
3 |  | 2 | CCOc1cc2c(cc1C(=O)NC)C(=N)N(CC(=O)c1cc(NC)cc(S(F)(F)(F)(F)F)c1)C2 [Example 3, N-Methyl-6-ethoxy-3-imino-2-[2-(3-methylamino-5-pentafluorosulfanylphenyl)-2-oxoethyl]-2,3-dihydro-1H-isoindole-5-carboxamide]
4 |  | 98 | CCOc1cc2c(c(F)c1OCC)C(=N)N(CC(=O)c1ccc(S(F)(F)(F)(F)F)cc1N)C2 [Example 19, 1-[2-Amino-4-(pentafluorosulfanyl)phenyl]-2-(5,6-diethoxy-7-fluoro-1-imino-1,3-dihydroisoindol-2-yl)ethanone]
5 | 128 |  | CCOc1cc2c(c(F)c1OCC)C(=N)N(CC(=O)c1cc(Br)c(S(F)(F)(F)(F)F)cc1N)C2 [Example 20, 1-[2-Amino-5-bromo-4-(pentafluorosulfanyl)phenyl]-2-(5,6-diethoxy-7-fluoro-1-imino-1,3-dihydroisoindol-2-yl)ethanone]
6 |  | 17 | CCOc1cc2c(cc1C(=O)NC)C(=N)N(CC(=O)c1cc(NC(C)=O)cc(S(F)(F)(F)(F)F)c1)C2 [Example 8, N-Methyl-2-[2-(3-acetylamino-5-pentafluorosulfanylphenyl)-2-oxoethyl]-6-ethoxy-3-imino-2,3-dihydro-1H-isoindole-5-carboxamide]
7 |  | 597 | CCOc1cc2c(cc1C(=O)NC)C(=N)N(CC(=O)c1cc(N(C)C)cc(S(F)(F)(F)(F)F)c1)C2 [Example 2, N-Methyl-2-[2-(3-dimethylamino-5-pentafluorosulfanylphenyl)-2-oxoethyl]-6-ethoxy-3-imino-2,3-dihydro-1H-isoindole-5-carboxamide]
8 |  | 28 | CCOc1cc2c(c(F)c1OCC)C(=N)N(CC(=O)c1cc(OC)cc(S(F)(F)(F)(F)F)c1)C2 [Example 21, 2-(5,6-Diethoxy-7-fluoro-1-imino-1,3-dihydroisoindol-2-yl)-1-[3-methoxy-5-(pentafluorosulfanyl)phenyl]ethanone]
9 | 225 |  | CCOc1cc2c(c(F)c1OCC)C(=N)N(CC(=O)c1cc(N3CCOCC3)cc(S(F)(F)(F)(F)F)c1)C2 [Example 30, 2-(5,6-Diethoxy-7-fluoro-1-imino-1,3-dihydroisoindol-2-yl)-1-[3-morpholin-4-yl-5-(pentafluorosulfanyl)phenyl]ethanone]
10 |  | 387 | CCOc1cc2c(c(F)c1OCC)C(=N)N(CC(=O)c1cc(N(C)C(C)=O)cc(S(F)(F)(F)(F)F)c1)C2 [Example 12, N-[3-[2-(5,6-diethoxy-7-fluoro-1-imino-1,3-dihydroisoindol-2-yl)acetyl]-5-(pentafluorosulfanyl)phenyl]-N-methylacetamide]
11 | 227 |  | CCOc1cc2c(c(F)c1OCC)C(=N)N(CC(=O)c1cc(NC(C)=O)cc(S(F)(F)(F)(F)F)c1)C2 [Example 14]
12 |  | 175 | CCOc1cc2c(c(F)c1OCC)C(=N)N(CC(=O)c1cc(N3C(=O)CCC3=O)cc(S(F)(F)(F)(F)F)c1)C2 [Example 18, 1-{3-[2-(5,6-Diethoxy-7-fluoro-1-imino-1,3-dihydroisoindol-2-yl)acetyl]-5-pentafluorosulfanylphenyl}pyrrolidine-2,5-dione]
13 |  | 718 | CCOc1cc2c(cc1C(=O)NC)C(=N)N(CC(=O)c1cc(N(S(C)(=O)=O)S(C)(=O)=O)cc(S(F)(F)(F)(F)F)c1)C2 [Example 10, N-Methyl-6-ethoxy-3-imino-2-{2-[3-dimethanesulfonylamino-5-(pentafluorosulfanyl)phenyl]-2-oxoethyl}-2,3-dihydro-1H-isoindole-5-carboxamide]
14 |  | 10600 | CCOc1cc2c(c(F)c1OCC)C(=N)N(CC(=O)c1cc(N)c(S(F)(F)(F)(F)F)cc1C)C2 [Example 16, 1-[5-Amino-2-methyl-4-(pentafluorosulfanyl)phenyl]-2-(5,6-diethoxy-7-fluoro-1-imino-1,3-dihydroisoindol-2-yl)ethanone]
15 | 1700 |  | CCOc1cc2c(c(F)c1OCC)C(=N)N(CC(=O)c1cc(Cl)cc(S(F)(F)(F)(F)F)c1)C2 [Example 27, 1-[3-Chloro-5-(pentafluorosulfanyl)phenyl]-2-(5,6-diethoxy-7-fluoro-1-imino-1,3-dihydroisoindol-2-yl)ethanone]
16 | 4800 |  | CCOc1cc2c(cc1C(=O)NC)C(=N)N(CC(=O)c1cc(NC(=O)C(F)(F)F)cc(S(F)(F)(F)(F)F)c1)C2 [Example 4, N-Methyl-6-ethoxy-3-imino-2-{2-[3-pentafluorosulfanyl-5-(2,2,2-trifluoroacetylamino)phenyl]-2-oxoethyl}-2,3-dihydro-1H-isoindole-5-carboxamide]
